Reference: ChEMBL document CHEMBL3885881, “DrugMatrix”

Species: Rattus norvegicus
Test: DrugMatrix - Regimen: Daily Repeat
Type: toxicity, organism-based, Sprague-Dawley
Set-up: regimen Daily Repeat, gender Male, age 6-8 weeks
Details: in vivo, po, route oral GAVAGE, […]; for ABSOLUTE BASOPHIL / ABSOLUTE EOSINOPHIL / ABSOLUTE LYMPHOCYTE / ABSOLUTE MONOCYTE / ABSOLUTE SEGMENTED NEUTROPHIL / BASOPHIL / EOSINOPHIL / ERYTHROCYTE COUNT / HEMATOCRIT / HEMOGLOBIN / LEUKOCYTE COUNT / LYMPHOCYTE / MEAN CORPUSCULAR HEMOGLOBIN / MEAN CORPUSCULAR HEMOGLOBIN CONCENTRATION / MEAN CORPUSCULAR VOLUME / MONOCYTE / NEUTROPHIL / NUCLEATED RED BLOOD CELLS / PLATELET COUNT: tissue Blood; for ALANINE AMINOTRANSFERASE / ALBUMIN / ALKALINE PHOSPHATASE / ASPARTATE AMINOTRANSFERASE / BLOOD UREA NITROGEN / CARBON DIOXIDE / CHLORIDE / CHOLESTEROL / CREATINE PHOSPHOKINASE / CREATININE / GLUCOSE / LACTATE DEHYDROGENASE / LIPASE / PHOSPHORUS / POTASSIUM / SODIUM / TOTAL BILIRUBIN / TOTAL PROTEIN / URIC ACID: tissue Plasma
[1] = 0 mg/kg, 72 h, dose level Control, time 3 day
[2] = 0 mg/kg, 120 h, dose level Control, time 5 day
[3] = 6 mg/kg, 72 h, dose level Low, time 3 day

CO[C@H]1O[C@@H]2O[C@@]3(C)CC[C@H]4[C@H](C)CC[C@@H]([C@H]1C)[C@@]24OO3
ABSOLUTE BASOPHIL [1]: 0 CELLS/uL | ABSOLUTE EOSINOPHIL [1]: 138.5 CELLS/uL | ABSOLUTE LYMPHOCYTE [1]: 13978.67 CELLS/uL | ABSOLUTE MONOCYTE [1]: 391 CELLS/uL | ABSOLUTE SEGMENTED NEUTROPHIL [1]: 1608.5 CELLS/uL | BASOPHIL [1]: 0% | EOSINOPHIL [1]: 1% | ERYTHROCYTE COUNT [1]: 5.8 x10E6/uL | HEMATOCRIT [1]: 36.22% | HEMOGLOBIN [1]: 13.65 G/DL | LEUKOCYTE COUNT [1]: 16.12 x10E3/uL | LYMPHOCYTE [1]: 86.67% | MEAN CORPUSCULAR HEMOGLOBIN [1]: 23.58 pg | MEAN CORPUSCULAR HEMOGLOBIN CONCENTRATION [1]: 37.72 G/DL | MEAN CORPUSCULAR VOLUME [1]: 62.52 fL | MONOCYTE [1]: 2.5% | NEUTROPHIL [1]: 9.83% | NUCLEATED RED BLOOD CELLS [1]: 0 /100WBC | PLATELET COUNT [1]: 1214.17 x10E3/uL | ALANINE AMINOTRANSFERASE [1]: 59.5 u/L | ALBUMIN [1]: 4.1 G/DL | ALKALINE PHOSPHATASE [1]: 393.83 u/L | ASPARTATE AMINOTRANSFERASE [1]: 87.83 u/L | BLOOD UREA NITROGEN [1]: 16.33 mg/dL | CARBON DIOXIDE [1]: 28.17 mmol/L | CHLORIDE [1]: 100.83 MEQ/L | CHOLESTEROL [1]: 73.33 mg/dL | CREATINE PHOSPHOKINASE [1]: 398 u/L | CREATININE [1]: 0.2 mg/dL | GLUCOSE [1]: 152.67 mg/dL | LACTATE DEHYDROGENASE [1]: 501.5 u/L | LIPASE [1]: 9.5 u/L | PHOSPHORUS [1]: 10.77 mg/dL | POTASSIUM [1]: 6.44 MEQ/L | SODIUM [1]: 143.4 MEQ/L | TOTAL BILIRUBIN [1]: 0.17 mg/dL | TOTAL PROTEIN [1]: 5.92 G/DL | URIC ACID [1]: 1.68 mg/dL | ABSOLUTE BASOPHIL [2]: 0 CELLS/uL | ABSOLUTE EOSINOPHIL [2]: 183.33 CELLS/uL | ABSOLUTE LYMPHOCYTE [2]: 14952.83 CELLS/uL | ABSOLUTE MONOCYTE [2]: 238.5 CELLS/uL | ABSOLUTE SEGMENTED NEUTROPHIL [2]: 1642 CELLS/uL | BASOPHIL [2]: 0% | EOSINOPHIL [2]: 1% | ERYTHROCYTE COUNT [2]: 5.89 x10E6/uL | HEMATOCRIT [2]: 36.13% | HEMOGLOBIN [2]: 13.37 G/DL | LEUKOCYTE COUNT [2]: 17.02 x10E3/uL | LYMPHOCYTE [2]: 87.17% | MEAN CORPUSCULAR HEMOGLOBIN [2]: 22.73 pg | MEAN CORPUSCULAR HEMOGLOBIN CONCENTRATION [2]: 37.02 G/DL | MEAN CORPUSCULAR VOLUME [2]: 61.45 fL | MONOCYTE [2]: 1.5% | NEUTROPHIL [2]: 10.33% | NUCLEATED RED BLOOD CELLS [2]: 0 /100WBC | PLATELET COUNT [2]: 1183.5 x10E3/uL | ALANINE AMINOTRANSFERASE [2]: 54.83 u/L | ALBUMIN [2]: 4.28 G/DL | ALKALINE PHOSPHATASE [2]: 363.17 u/L | ASPARTATE AMINOTRANSFERASE [2]: 96.83 u/L | BLOOD UREA NITROGEN [2]: 15.67 mg/dL | CARBON DIOXIDE [2]: 26.17 mmol/L | CHLORIDE [2]: 102.67 MEQ/L | CHOLESTEROL [2]: 63.67 mg/dL | CREATINE PHOSPHOKINASE [2]: 594.33 u/L | CREATININE [2]: 0.2 mg/dL | GLUCOSE [2]: 182.33 mg/dL | LACTATE DEHYDROGENASE [2]: 656.5 u/L | LIPASE [2]: 9.33 u/L | PHOSPHORUS [2]: 11.7 mg/dL | POTASSIUM [2]: 5.92 MEQ/L | SODIUM [2]: 142.62 MEQ/L | TOTAL BILIRUBIN [2]: 0.13 mg/dL | TOTAL PROTEIN [2]: 5.85 G/DL | URIC ACID [2]: 1.8 mg/dL | ABSOLUTE BASOPHIL [3]: 0 CELLS/uL | ABSOLUTE EOSINOPHIL [3]: 0 CELLS/uL | ABSOLUTE LYMPHOCYTE [3]: 14690 CELLS/uL | ABSOLUTE MONOCYTE [3]: 490.33 CELLS/uL | ABSOLUTE SEGMENTED NEUTROPHIL [3]: 1319.67 CELLS/uL | BASOPHIL [3]: 0% | EOSINOPHIL [3]: 0% | ERYTHROCYTE COUNT [3]: 5.7 x10E6/uL | HEMATOCRIT [3]: 36.23% | HEMOGLOBIN [3]: 13.63 G/DL | LEUKOCYTE COUNT [3]: 16.5 x10E3/uL | LYMPHOCYTE [3]: 88.67% | MEAN CORPUSCULAR HEMOGLOBIN [3]: 23.93 pg | MEAN CORPUSCULAR HEMOGLOBIN CONCENTRATION [3]: 37.67 G/DL | MEAN CORPUSCULAR VOLUME [3]: 63.6 fL | MONOCYTE [3]: 3% | NEUTROPHIL [3]: 8.33% | NUCLEATED RED BLOOD CELLS [3]: 0 /100WBC | PLATELET COUNT [3]: 1120 x10E3/uL | ALANINE AMINOTRANSFERASE [3]: 66.67 u/L | ALBUMIN [3]: 4.17 G/DL | ALKALINE PHOSPHATASE [3]: 405.67 u/L | ASPARTATE AMINOTRANSFERASE [3]: 88.33 u/L | BLOOD UREA NITROGEN [3]: 16.33 mg/dL | CARBON DIOXIDE [3]: 25.67 mmol/L | CHLORIDE [3]: 103 MEQ/L | CHOLESTEROL [3]: 70.33 mg/dL | CREATINE PHOSPHOKINASE [3]: 249.33 u/L | CREATININE [3]: 0.21 mg/dL | GLUCOSE [3]: 155.33 mg/dL | LACTATE DEHYDROGENASE [3]: 155 u/L | LIPASE [3]: 9.33 u/L | PHOSPHORUS [3]: 11.6 mg/dL | POTASSIUM [3]: 6.23 MEQ/L | SODIUM [3]: 145.23 MEQ/L | TOTAL BILIRUBIN [3]: 0.2 mg/dL | TOTAL PROTEIN [3]: 5.8 G/DL | URIC ACID [3]: 1.47 mg/dL
